Reference: US11198741B2, “Medicines for topic use based on sulfated hyaluronic acid as activating or inhibiting agent of the cytokine activity” (Fidia Farmaceutici S.p.A., priority 2009, dated 2021)

Columns and labels:
[1] = format: in vitro ADME
Protocol: The skin used for effecting the experiments is obtained from the abdomen of patients between 30 and 50 years old, subjected to surgical abdominal reductions. The sections of skin with a complete thickness are frozen after the surgical intervention and preserved at −20° C. until the moment of the experiment, in which the samples are defrozen at room temperature and accurately separated from the adipose tissue. The skin is divided into square sections of 2.5 cm^2, immersed for a minute in water at a temperature of 60° C. and with the help of specific tweezers, the corneal layer and epidermis (SCE) are accurately separated from the underlying tissues. The samples obtained are analyzed with an optical microscope and discarded if punctures are found. The SCE is assembled in the lower part of a Franz cell with the epidermis facing downwards and the corneal layer in contact with the donor solution which is situated above. The permeation area is a circular surface of 0.636 cm^2. […] Each experiment is effected triply and the result is intended as the average of the 3, expressed as quantity of analyte which has crossed the surface unit of skin after 24 hours. […] The concentration of diclofenac was determined through reverse-phase HPLC analysis on an apparatus Agilent 1200 Series and UV detection (254 nm), C18 column, eluent acetonitrile/water/acetic acid 50/46/4 with a flow of 1.2 ml/min.

IL-2 = assay: Protein synthesis of IL-2 in human PBMC (SearchLight array); conditions: not stimulated or stimulated with LPS or PHA (10 μg/ml), 24 hours, FIG. 6: HAS1 0.1 mg/ml, HAS3 1 mg/ml, vs HA
Protocol: (§1) For these experimentations, mononucleate cells of human peripheral blood (PBMC) were adopted, deriving from various donors for evaluating the effect of HAS on the production of the cytokines listed above, using:
(§2) The separation of the PBMC (Bøyum A., Scand J Clin Lab Invest 21 Suppl, 1968, 97:77-89) was effected using the product Ficoll-Paque PLUS (GE Healthcare) and following the protocol indicated by the supplier. At day zero 100,000 cells were plated per well (using plates with 96 wells) in 200 μl of medium RPMI 1640, to which 10% of fetal bovine serum, HEPES 10 mM, Glutamine 2 mM, 1% Penicillin-Streptomycin 100 U/ml, had been added. […] The cells were treated separately with the three compounds at a concentration of 0.1 mg/ml or 1 mg/ml. After 24 hours of incubation at 37° C. (5% CO2), 100 μl of supernatant were taken from each well in order to analyze the production of IL-2, IL-7, IL-10 and IL-12.
(§3) The quantification of the inflammation mediators was effected by means of the SearchLight® technology, using a Custom Human 9-flex Array plate following the protocol indicated by the supplier in the technical card.

[2] = tested on: Cytomegalovirus (CMV: AD-169 and Davis strain); assay: Inhibition of Cytomegalovirus plaque formation in HEL cells; format: cell-based; conditions: numbers only in FIG. 11
Protocol: The activity of the samples tested was determined by evaluating the inhibition of the cytopathogenicity determined by Cytomegalovirus (CMV: AD-169 and Davis strain) using the previous protocol. The antiviral activity was tested vs HEL cells (pulmonary embryonic cells) and was expressed as the concentration required for inhibiting the number of plaques formed by the above virus by 50%.

IL-12 [3] = assay: Protein synthesis of IL-12 in human PBMC (SearchLight array); conditions: not stimulated or stimulated with LPS or PHA (10 μg/ml), 24 hours, FIG. 8: 1 mg/ml, vs HA
Protocol: as §1, §2, §3

[4] = tested on: Herpes Simplex Virus-1 (HSV-1: KOS, F and McIntyre strain); assay: Inhibition of viral cytopathogenicity in E6SM fibroblast cells, HSV-1; format: cell-based; conditions: 2nd day of incubation, numbers only in FIG. 10
IL-12 [5] = assay: Gene expression of IL-12 in human synoviocytes (PCR Real Time); format: cell-based; conditions: 3 days of treatment, FIG. 2: 0.5 mg/ml, vs control treated with non-sulfated HA 200 KD
Protocol: Human synoviocytes previously expanded in vitro and maintained in a culture at 37° C. with a medium of DMEM containing 10% of FCS, were seeded at a concentration of 20,000 cells per well (synoviocytes are cells capable of producing various types of cytokines, and are therefore normally used for this type of experimental test). […] After 3 days of treatment, the PCR Real Time was effected to evaluate the gene expression of IL-10 and IL-12: the cell RNA was extracted using the “Trizol” method, following the indications of the supplier (TRIZOL reagent, LIFE Technologies, GIBCO BRL). In short, the cells were lysed by the addition of 1.0 ml of Trizol and the total RNA was quantified by measuring its absorbance at 260 nm. The appropriate primers were selected for each gene to be amplified, using the software Primer3 (Roche Molecular Diagnostics, Pleasanton, Calif., USA). The gene expression was evaluated by means of PCR Real Time effected with a Rotor-gene TM5500 (Corbett research, Sydney, Australia). The PCR reactions were effected using primers at […] and SYBR Green (Invitroge, Carlsbad, Calif., USA) at 40 cycles of 15 s at 95° C., and 1 min. at 60° C. The value of “Fluorescence thresholds (Ct)” was automatically determined by the software, evaluating an amplification coefficient for the genes studied between 92 and 110%. […]

## sulfated hyaluronic acid degree 3 [HAS3]
[1]
  total permeate quantity of diclofenac in 24 h: doubling
IL-2
  synthesis of IL-2: significantly reducing
[2]
  antiviral activity vs Cytomegalovirus (inhibition of the number of plaques): clear and significant positive result
IL-12 [3]
  synthesis of IL-12: significantly reducing
[4]
  antiviral activity (inhibition of the cytopathogenicity of the virus) vs HSV-1: powerful antiviral action
IL-12 [5]
  gene expression of IL-12 (synthesis of its mRNA): halving the synthesis of its mRNA
